The experiment is described as follows: Antioxidant activity after 1 hr by cytochrome-c reduction assay. It counts as functional. Also noted: scale not given: the % may be the effect or the level left.

Molecules are shown by their SMILES.

With `CC(=O)c1cccc(O[C@H]2O[C@H](CO)[C@@H](O)[C@H](O)[C@@H]2O)c1`, the Activity was determined as 66.9%. The same measure for `CC(=O)c1cccc(O[C@@H]2O[C@H](CO)[C@@H](O)[C@H](O)[C@H]2O)c1`: 51.7%; for `CC(=O)c1cccc(O[C@@H]2O[C@H](CO)[C@@H](O)[C@H](O)[C@@H]2O)c1`: 71.5%. In turn, `CC(=O)c1cccc(O)c1` showed an Activity of 0%.

The record behind these values is ChEMBL document CHEMBL1145591, “Synthesis of new UV-B light absorbents: (Acetylphenyl)glycosides with antioxidant activities” (Bioorg Med Chem Lett, 2008).
